Here are results for 39 molecules from patent US3984432A, “Color photographic recording material” (priority 1973, dated 1976).

One data set in a line: Absorption maximum after colour development in a photographic silver halide layer according to Use Example I. It is filed as physicochemical.
Conditions: not given
The protocol:
The compounds of the formulae which follow are prepared according to methods which are in themselves known, from the corresponding 4-equivalentcoupling agents (the corresponding compounds with hydrogen in the position marked with *, in place of the substituents drawn). With regard to methods of manufacture, compare DT-OS or DT-AS 1,236,332, 2,043,271, 1,547,672 or 1,187,477. Next to the formula, the absorption maximum in nm is specified in each case (see footnote to Table I). ##SPC8##
*)After colour development of the coupling agents in a photographic silve
halide layer according to Use Example I
0.3 mmol of coupling agent of the formula (215) is dissolved in 2.0 ml of tricresyl phosphate/methylene chloride (3:7). The methylene chloride is evaporated off, 6.0 ml of an 8% strength aqueous solution of sodium isopropylnaphthalene-sulphonate, 20.0 ml of 6% strength gelatine solution and 3.4 ml of water are added and the mixture is adjusted to pH 6.5 and emulsified for 5 minutes by means of an ultrasonic apparatus with an output of 100 watt.
5.0 of coupling agent emulsion freshly treated with ultrasonics, 3.3 ml of silver bromide emulsion of pH 6.5, containing 1.4% of silver and 6.0% of gelatine, 2.0 ml of 1% strength aqueous solution of the hardener of the formula [formula] and 1.7 ml of water are mixed with one another and cast at 40°C on a substrated glass plate of size 13 cm × 18 cm. After solidifying at 10° C, the plate is dried in a drying cabinet with circulating air at 32° C.
A strip cut to 4.0 cm × 6.5 cm is exposed to 500 Lux/cm^2 under a step wedge for 2 seconds and is subsequently treated at 24° C as follows: […]
Regarding `CCCCC(CC)COP(=O)(CCNC(=O)c1ccc(Cl)c(NC(=O)CC(=O)c2ccc(OC)cc2)c1)OCC(CC)CCCC` (stereo not drawn) [(134)], the “Abs.max. (single maximum)” value is listed as 447 nm. Same read-out and setting: the value for `CCCCOP(=O)(CCCc1ccc(NC(=O)CC(=O)c2ccccc2)cc1)OCCCC` [(124)] was 436 nm. For the molecule `CCCCOP(=O)(Cc1ccc(CP(=O)(OCCCC)OCCCC)c(NC(=O)c2ccc(OC)c(NC(=O)CC(=O)c3ccccc3OCC)c2)c1)OCCCC` [(137)], the “Abs.max. (single maximum)” value is given as 425 nm. As for `CCCCOP(=O)(CCCOc1cc(OCCCP(=O)(OCCCC)OCCCC)cc(C(=O)Nc2ccc(C)c(NC(=O)CC(=O)C(C)(C)C)c2)c1)OCCCC` [(117)], the “Abs.max. (single maximum)” value is 445 nm. As for `CCOP(=O)(OCC)C(C)(C)NC(=O)c1cc(NC(=O)CC(=O)c2ccccc2)cc(C(=O)NC(C)(C)P(=O)(OCC)OCC)c1` [(111)], the “Abs.max. (single maximum)” value was determined as 440 nm. With `CC(C)OP(=O)(OC(C)C)C1(C)CC(NC(=O)c2ccc(Cl)c(NC(=O)CC(=O)c3ccc(C(C)(C)C)cc3)c2)CC(C)(C)C1` (stereo not drawn) [(140)], the “Abs.max. (single maximum)” value was 439 nm. Take `CCOP(=O)(CCCc1ccc(NC(=O)CC(=O)C(C)(C)C)cc1)OCC` [(103)]: the “Abs.max. (single maximum)” value was 429 nm. Same read-out and setting: as for `CCCCOP(=O)(CCCOc1cccc(C(=O)Nc2cccc(C(=O)CC(=O)Nc3cc(C)ccc3OC)c2)c1)OCCCC` [(121)], the figure is 434 nm; as for `CCCCC(CC)COP(=O)(CCCOc1cccc(NC(=O)CC(=O)c2ccccc2)c1)OCC(CC)CCCC` (stereo not drawn) [(122)], 436 nm. For the molecule `CCCCOP(=O)(CCCC)Oc1cccc(NC(=O)Cc2ccc(NC(=O)CC(=O)c3ccccc3Cl)cc2)c1` (stereo not drawn) [(138)], the “Abs.max. (single maximum)” value turned out to be 442 nm. Still for that read-out and setting: the value for `COc1ccc(C(=O)C(Cl)C(=O)Nc2ccc(OP(=O)(Oc3ccccc3)C(C)(C)C)cc2)cc1` (stereo not drawn) [(146)] was 437 nm. On the same count and under the same terms, as for `CCCCOP(=O)(CCCOc1cccc(NC(=O)c2ccc3ccccc3c2O)c1)OCCCC` [(602)], the figure is 706 nm.

The same data set, now with this note: pyrazolone coupling agents.
For `CCCCC(CC)COP(=O)(CCCOc1cccc(C(=O)Nc2ccc(NC3=NN(c4ccccc4)C(=O)C3)cc2)c1)OCC(CC)CCCC` (stereo not drawn) [(420)], the “Abs.max., first of two maxima (subsidiary maximum)” value (“Abs.max., first of two maxima” below) is on record as 428 nm and the “Abs.max., second of two maxima (absorption maximum)” value (shortened to “Abs.max., second of two maxima”) is reported as 529 nm. The matching figures for `CCCCC(CC)COP(=O)(CCCOc1cccc(C(=O)Nc2cccc(NC(=O)NC3=NN(c4c(Cl)cc(Cl)cc4Cl)C(=O)C3)c2)c1)OCC(CC)CCCC` (stereo not drawn) [(274)]: 430 nm and 546 nm.

On to `CCCCOP(=O)(CCCOc1cccc(C(=O)Nc2cccc(NC3=NN(c4ccc(S(=O)(=O)N(CC)CC)cc4)C(=O)C3)c2)c1)OCCCC` [(427)], for which the “Abs.max., first of two maxima” value was 431 nm and the “Abs.max., second of two maxima” value is 538 nm. Turning to `CCOP(=O)(CCCOc1cccc(C(=O)Nc2cccc(NC3=NN(c4c(Cl)cc(Cl)cc4Cl)C(=O)C3)c2)c1)OCC` [(415)], the “Abs.max., first of two maxima” value was 426 nm and the “Abs.max., second of two maxima” value turned out to be 532 nm. In the case of `CCCCC(CC)COP(=O)(CCCOc1cccc(OCC(=O)Nc2cccc(C(=O)NC3=NN(c4c(Cl)cc(Cl)cc4Cl)C(=O)C3)c2)c1)OCC(CC)CCCC` (stereo not drawn) [(270)], the “Abs.max., first of two maxima” value is given as 438 nm and the “Abs.max., second of two maxima” value was 544 nm. The matching figures for `CCOP(=O)(CCCOc1cc(OCCCP(=O)(OCC)OCC)cc(C(=O)Nc2ccc(C(=O)NC3=NN(c4c(Cl)cc(Cl)cc4Cl)C(=O)C3)cc2)c1)OCC` [(208)]: 434 nm and 546 nm. The matching figures for `CCCCOP(=O)(CCCOc1cc(OCCCP(=O)(OCCCC)OCCCC)cc(C(=O)NC2=NN(c3c(C)c(Cl)c(OC)c(Cl)c3Cl)C(=O)C2)c1)OCCCC` [(254)]: 438 nm and 540 nm. The matching figures for `CCOP(=O)(CCCCCOc1cccc(C(=O)Nc2cccc(C(=O)NC3=NN(c4ccccc4)C(=O)C3)c2)c1)OCC` [(227)]: 438 nm and 532 nm.

Turning to `CCOP(=O)(CCCOc1cc(OCCCP(=O)(OCC)OCC)cc(C(=O)Nc2cccc(C(=O)NC3=NN(c4ccccc4)C(=O)C3)c2)c1)OCC` [(228)], the “Abs.max., first of two maxima” value is given as 438 nm and the “Abs.max., second of two maxima” value is 533 nm. In the case of `CCOP(=O)(CCCc1ccc(NC2=NN(c3ccccc3)C(=O)C2)cc1)OCC` [(407)], the “Abs.max., first of two maxima” value was 429 nm and the “Abs.max., second of two maxima” value is 527 nm. As to `CCCCC(CC)COP(=O)(CCCOc1cc(OCCCP(=O)(OCC(CC)CCCC)OCC(CC)CCCC)cc(C(=O)Nc2ccc(C(=O)NC3=NN(c4c(Cl)cc(Cl)cc4Cl)C(=O)C3)cc2)c1)OCC(CC)CCCC` (stereo not drawn) [(234)], the “Abs.max., first of two maxima” value was determined as 434 nm and the “Abs.max., second of two maxima” value is 540 nm. In the case of `CCOP(=O)(CCCOc1cccc(NC2=NN(c3ccccc3)C(=O)C2)c1)OCC` [(401)], the “Abs.max., first of two maxima” value is reported as 429 nm and the “Abs.max., second of two maxima” value is 524 nm. With `CCCCOP(=O)(CCCOc1cccc(C(=O)Nc2ccc(NC3=NN(c4ccccc4)C(=O)C3)cc2)c1)OCCCC` [(417)], the “Abs.max., first of two maxima” value is 428 nm and the “Abs.max., second of two maxima” value amounted to 530 nm. Take `CCCCOP(=O)(CCCOc1cccc(C(=O)Nc2c(C)cc(C)c(N3N=C(Nc4ccc(Cl)cc4)CC3=O)c2C)c1)OCCCC` [(426)]: the “Abs.max., first of two maxima” value is listed as 430 nm and the “Abs.max., second of two maxima” value came out at 528 nm.

With `CCOP(=O)(CCCOc1cc(OCCCP(=O)(OCC)OCC)cc(C(=O)Nc2cccc(C(=O)NC3=NN(c4c(Cl)cc(Cl)cc4Cl)C(=O)C3)c2)c1)OCC` [(216)], the “Abs.max., first of two maxima” value was 432 nm and the “Abs.max., second of two maxima” value was 546 nm.

As to `CCOP(=O)(CCCOc1cccc(NC2=NN(c3c(Cl)cc(Cl)cc3Cl)C(=O)C2)c1)OCC` [(403)], the “Abs.max., first of two maxima” value is 424 nm and the “Abs.max., second of two maxima” value turned out to be 526 nm. As for `CCCCC(CC)COP(=O)(CCCOc1cccc(C(=O)Nc2cccc(C(=O)NC3=NN(c4c(C)cc(C)cc4Cl)C(=O)C3)c2)c1)OCC(CC)CCCC` (stereo not drawn) [(262)], the “Abs.max., first of two maxima” value was found to be 440 nm and the “Abs.max., second of two maxima” value was found to be 536 nm. Regarding `CCCCOP(=O)(CCCOc1cccc(C(=O)Nc2cccc(C(=O)NC3=NN(c4ccc(S(C)(=O)=O)cc4)C(=O)C3)c2)c1)OCCCC` [(275)], the “Abs.max., first of two maxima” value is 440 nm and the “Abs.max., second of two maxima” value is listed as 538 nm. For `CCOP(=O)(CCCCCOc1cccc(C(=O)NC2=NN(c3c(Cl)cc(Cl)cc3Cl)C(=O)C2)c1)OCC` [(213)], the “Abs.max., first of two maxima” value stood at 434 nm and the “Abs.max., second of two maxima” value is on record as 537 nm. Take `CCCCOP(=O)(CCCOc1cc(OCCCP(=O)(OCCCC)OCCCC)cc(C(=O)Nc2cccc(C(=O)NC3=NN(c4cccc(Cl)c4)C(=O)C3)c2)c1)OCCCC` [(255)]: the “Abs.max., first of two maxima” value is on record as 438 nm and the “Abs.max., second of two maxima” value was 536 nm. With `CCCCOP(=O)(CCCOc1cc(OCCCP(=O)(OCCCC)OCCCC)cc(C(=O)Nc2cccc(C(=O)NC3=NN(c4ccccc4)C(=O)C3)c2)c1)OCCCC` [(229)], the “Abs.max., first of two maxima” value was 440 nm and the “Abs.max., second of two maxima” value turned out to be 532 nm.

`CCCCOP(=O)(CCCOc1cccc(NC2=NN(c3ccccc3)C(=O)C2)c1)OCCCC` [(412)]: the “Abs.max., first of two maxima” value was 430 nm and the “Abs.max., second of two maxima” value is 528 nm. For `CCCCOP(=O)(CCCOc1cccc(C(=O)Nc2cccc(C(=O)NC3=NN(c4ccccc4)C(=O)C3)c2)c1)OCCCC` [(224)], the “Abs.max., first of two maxima” value is recorded as 440 nm and the “Abs.max., second of two maxima” value worked out at 534 nm. As to `CCCCC(CC)COP(=O)(CCCOc1cccc(C(=O)Nc2cccc(NC3=NN(c4ccccc4)C(=O)C3)c2)c1)OCC(CC)CCCC` (stereo not drawn) [(421)], the “Abs.max., first of two maxima” value is reported as 430 nm and the “Abs.max., second of two maxima” value is given as 528 nm. On to `CCOP(=O)(CCCOc1ccc(NC2=NN(c3cccc(Cl)c3)C(=O)C2)cc1)OCC` [(406)], for which the “Abs.max., first of two maxima” value stood at 425 nm and the “Abs.max., second of two maxima” value was found to be 530 nm.

Regarding `CCCCOP(=O)(CCCOc1cc(OCCCP(=O)(OCCCC)OCCCC)cc(C(=O)Nc2cccc(C(=O)NC3=NN(c4nc5ccccc5s4)C(=O)C3)c2)c1)OCCCC` [(258)], the “Abs.max., first of two maxima” value worked out at 550 nm and the “Abs.max., second of two maxima” value turned out to be 580 nm. As for `CCCCOP(=O)(CCCOc1cc(OCCCP(=O)(OCCCC)OCCCC)cc(C(=O)Nc2cccc(C(=O)NC3=NN(c4c(Cl)cc(Cl)cc4OC)C(=O)C3)c2)c1)OCCCC` [(265)], the “Abs.max., first of two maxima” value amounted to 436 nm and the “Abs.max., second of two maxima” value came to 537 nm.
